In patent publication US20240000751A1, “STABLE ORAL FORMULATION CONTAINING 1-(3-CYANO-1-ISOPROPYL-INDOL-5-YL)PYRAZOLE-4-CARBOXYLIC ACID” (LG CHEM, LTD., priority 2020, published 2024):

Test: Stability of API and 1:1 API/excipient mixtures stored under accelerated conditions, residual assay of API by HPLC
Assay type: physicochemical
Conditions: mixture
Experimental: As disclosed in Table 1 below, after preparing a mixture by mixing API, 1-(3-cyano-1-isopropyl-indol-5-yl)pyrazol-4-carboxylic acid, with various types of excipients such as microcrystalline cellulose, the residual assay of API at the initial stage and after 1 month, 2 months, and 3 months storage, respectively, under accelerated conditions (40° C., 75% RH; relative humidity) were measured through the analysis method and process described below.
• HPLC analysis conditions are as follows: • Column: Inertsil ODS-2 (4.6×150 mm, 5 μm, GL Science) • Detector: 254 nm, UV • Flow Rate: […] • Injection Volume: […] • Column Temperature: 40° C. • Eluent • A: Acetonitril/Purified water/TFA(Trifluoroacetic acid)=40/60/0.1(v/v/v) • B: Acetonitril/Purified water/TFA=80/20/0.1(v/v/v)

For CC(C)n1cc(C#N)c2cc(-n3cc(C(=O)O)cn3)ccc21 [Comparative Example 1, 1-(3-cyano-1-isopropyl-indol-5-yl)pyrazol-4-carboxylic acid], the “residual assay of API, 3 Months” value (after 3 months storage under accelerated conditions (40° C., 75% RH)) was 98.7% and the “residual assay of API, Initial” value (initial stage, accelerated conditions (40° C., 75% RH)) was 98.7%.
